Measurements as given in ChEMBL document CHEMBL3301546, “MMV Malaria Box yeast growth screening”.

Assays:
Format in all cases: functional
Saccharomyces cerevisiae [1] = test: (§1) MMV: Growth assays were conducted using the prototrophic S. cerevisiae strain JHY222. Each MMV compound (0.1 mM) was tested in rich media containing dextrose as a carbon source (Yeast Extract, Peptone, Dextrose; YPD). The growth rate in the presence of each MMV compound was calculated as follows: (i) the first 10 OD readings were averaged and subtracted from all OD readings of the corresponding curve to set the baseline of the growth curve to zero, and (ii) the area under the curve (AUC) was then calculated as the sum of all OD readings. […] A relative growth value was calculated as follows: AUC(DRUG) - AUC(DMSO)/AUC(DMSO); where AUC(DMSO) represents growth measured in a DMSO control well that was on the same microtiter plate of the drug-treated culture.
Saccharomyces cerevisiae [2] = test: as §1, with “minimal” for “rich”, “Nitrogen Base,” for “Extract, Peptone,”, “YNBD).” for “YPD).”
Saccharomyces cerevisiae [3] = test: as §1, with “minimal” for “rich”, “ethanol and glycerol” for “dextrose”, “as” for “as a”, “sources” for “source”, “Nitrogen Base, Ethanol, Glycerol; YNBEG).” for “Extract, Peptone, Dextrose; YPD).”

O=C1c2ccccc2C2=Nc3ccccc3SC(c3cccc(F)c3)C12 (centres undefined)
Relative Growth (Saccharomyces cerevisiae [1]): 0.0574
Relative Growth (Saccharomyces cerevisiae [2]): -0.0716
Relative Growth (Saccharomyces cerevisiae [3]): -0.2808

COC(=O)c1ccc(C2C3=C(O)CC(c4ccc(F)cc4)CC3=Nc3ccccc3N2C(=O)c2ccccc2)cc1 (centres undefined)
Relative Growth (Saccharomyces cerevisiae [1]): -0.0053
Relative Growth (Saccharomyces cerevisiae [2]): 0.2377
Relative Growth (Saccharomyces cerevisiae [3]): 0.1245

COc1nc(Nc2ccc(C(C)C)cc2)nc(OC)n1
Relative Growth (Saccharomyces cerevisiae [1]): -0.007
Relative Growth (Saccharomyces cerevisiae [2]): 0.0529
Relative Growth (Saccharomyces cerevisiae [3]): 0.0254

O=C(Nc1ccc(Cl)cc1C(=O)Nc1ccncc1)c1ccc(Cl)cc1Cl
Relative Growth (Saccharomyces cerevisiae [1]): 0.0512
Relative Growth (Saccharomyces cerevisiae [2]): 0.0109
Relative Growth (Saccharomyces cerevisiae [3]): -0.1824

COc1ccc2sc(N(Cc3cccnc3)C(=O)c3ccc(C#N)cc3)nc2c1
Relative Growth (Saccharomyces cerevisiae [1]): -0.0469
Relative Growth (Saccharomyces cerevisiae [2]): -0.1064
Relative Growth (Saccharomyces cerevisiae [3]): -0.5371

CC(C)(C)c1ccc(O)c(CNC2CCCCC2)c1
Relative Growth (Saccharomyces cerevisiae [1]): -0.013
Relative Growth (Saccharomyces cerevisiae [2]): 0.1031
Relative Growth (Saccharomyces cerevisiae [3]): -0.0737

OC(CNC1CCCC1)Cn1c2ccccc2c2ccccc21 (centres undefined)
Relative Growth (Saccharomyces cerevisiae [1]): -0.0524
Relative Growth (Saccharomyces cerevisiae [2]): -0.142
Relative Growth (Saccharomyces cerevisiae [3]): -0.0741

Cc1cc(C)c2nc(N3CCC(C(=O)NCCCN4CCC(N5CCCCC5)CC4)CC3)sc2c1
Relative Growth (Saccharomyces cerevisiae [1]): -0.0409
Relative Growth (Saccharomyces cerevisiae [2]): -0.0696
Relative Growth (Saccharomyces cerevisiae [3]): -0.0414

COc1cccc(C=Cc2nc(=O)c3ccccc3o2)c1OC
Relative Growth (Saccharomyces cerevisiae [1]): -0.0201
Relative Growth (Saccharomyces cerevisiae [2]): 0.0576
Relative Growth (Saccharomyces cerevisiae [3]): -0.4404

Cc1cc(=O)oc2c1ccc1oc(C(=O)c3ccccc3)c(C)c12
Relative Growth (Saccharomyces cerevisiae [1]): 0.0119
Relative Growth (Saccharomyces cerevisiae [2]): -0.1287
Relative Growth (Saccharomyces cerevisiae [3]): -0.3574

COc1ccc(C2NCCc3c2[nH]c2ccccc32)cc1CN1CCN(c2ccc(F)cc2)CC1.Cl (centres undefined)
Relative Growth (Saccharomyces cerevisiae [1]): -0.0229
Relative Growth (Saccharomyces cerevisiae [2]): 0.0397
Relative Growth (Saccharomyces cerevisiae [3]): -0.0259

Br.CCN(CC)S(=O)(=O)c1ccc(-c2csc(Nc3ccc(C)c(C)c3)n2)cc1
Relative Growth (Saccharomyces cerevisiae [1]): -0.1037
Relative Growth (Saccharomyces cerevisiae [2]): 0.0785
Relative Growth (Saccharomyces cerevisiae [3]): -0.6715

CCOc1cc(Br)c(C(C)NC(=O)c2cccc(OC)c2)cc1OCC (centres undefined)
Relative Growth (Saccharomyces cerevisiae [1]): 0.0654
Relative Growth (Saccharomyces cerevisiae [2]): -0.0511
Relative Growth (Saccharomyces cerevisiae [3]): -0.5924

Oc1c(CN2CCN(c3ccccc3F)CC2)cc(Br)c2cccnc12
Relative Growth (Saccharomyces cerevisiae [1]): -0.0397
Relative Growth (Saccharomyces cerevisiae [2]): 0.0189
Relative Growth (Saccharomyces cerevisiae [3]): 0.0379

CCOC(=O)C1=C(C)N=c2sc(=Cc3ccccc3O)c(=O)n2C1c1ccc(OC)c2ccccc12 (centres undefined)
Relative Growth (Saccharomyces cerevisiae [1]): -0.9923
Relative Growth (Saccharomyces cerevisiae [2]): 0.0217
Relative Growth (Saccharomyces cerevisiae [3]): 0.0525

Clc1ccc2[nH]c3c(NCCCN4CCOCC4)ncnc3c2c1
Relative Growth (Saccharomyces cerevisiae [1]): 0.0234
Relative Growth (Saccharomyces cerevisiae [2]): -0.0328
Relative Growth (Saccharomyces cerevisiae [3]): -0.0516

C=CCc1c(C)nc2ccccc2c1O
Relative Growth (Saccharomyces cerevisiae [1]): -0.0062
Relative Growth (Saccharomyces cerevisiae [2]): -0.0056
Relative Growth (Saccharomyces cerevisiae [3]): 0.1025

CCOC(=O)c1cnc2ccc(OC)cc2c1NCc1ccccc1
Relative Growth (Saccharomyces cerevisiae [1]): -0.0244
Relative Growth (Saccharomyces cerevisiae [2]): -0.0203
Relative Growth (Saccharomyces cerevisiae [3]): -0.1303

COc1cccc(Nc2nc(NCCO)c3ccccc3n2)c1.Cl
Relative Growth (Saccharomyces cerevisiae [1]): 0.0163
Relative Growth (Saccharomyces cerevisiae [2]): -0.0288
Relative Growth (Saccharomyces cerevisiae [3]): -0.0151

COc1ccc(C2C(C(=O)Nc3cccc(OC)c3)c3ccccc3C(=O)N2C2CCCCC2)cc1 (centres undefined)
Relative Growth (Saccharomyces cerevisiae [1]): -0.0663
Relative Growth (Saccharomyces cerevisiae [2]): 0.0321
Relative Growth (Saccharomyces cerevisiae [3]): -0.1595

CCOc1ccc(C2N(C)c3ccccc3N2C)cc1
Relative Growth (Saccharomyces cerevisiae [1]): -0.6451
Relative Growth (Saccharomyces cerevisiae [2]): -1.0114
Relative Growth (Saccharomyces cerevisiae [3]): -1.002

CCCCC(O)(c1ccc(Cl)cc1)C(CN1CCOCC1)c1ccc(Cl)cc1.Cl (centres undefined)
Relative Growth (Saccharomyces cerevisiae [1]): 0.0402
Relative Growth (Saccharomyces cerevisiae [2]): -0.1088
Relative Growth (Saccharomyces cerevisiae [3]): -0.0844

COc1ccc(OC)c(C2C3=C(CC(C)(C)CC3=O)N(c3ccc(Cl)c(Cl)c3)C3=C2C(=O)CC(C)(C)C3)c1
Relative Growth (Saccharomyces cerevisiae [1]): -0.0143
Relative Growth (Saccharomyces cerevisiae [2]): -0.0153
Relative Growth (Saccharomyces cerevisiae [3]): -0.1129

CC(O)(c1ccc(Cl)cc1)C(CN1CCCCC1)c1ccccc1.Cl (centres undefined)
Relative Growth (Saccharomyces cerevisiae [1]): 0.0259
Relative Growth (Saccharomyces cerevisiae [2]): -0.0009
Relative Growth (Saccharomyces cerevisiae [3]): 0.0803

CC(C)(C)c1ccc(C(=O)Nc2nc3ccccc3s2)cc1
Relative Growth (Saccharomyces cerevisiae [1]): -0.132
Relative Growth (Saccharomyces cerevisiae [2]): -0.0029
Relative Growth (Saccharomyces cerevisiae [3]): -0.4045

CC(=O)NCCc1nc2ccccc2n1Cc1ccc(C(C)C)cc1
Relative Growth (Saccharomyces cerevisiae [1]): 0.0716
Relative Growth (Saccharomyces cerevisiae [2]): -0.0851
Relative Growth (Saccharomyces cerevisiae [3]): 0.1937

COc1cccc(C2(C)Nc3ccccc3-c3nc4ccccc4n32)c1 (centres undefined)
Relative Growth (Saccharomyces cerevisiae [1]): 0.098
Relative Growth (Saccharomyces cerevisiae [2]): -0.0211
Relative Growth (Saccharomyces cerevisiae [3]): -0.0556

CCOC(=O)c1cn(CC)c2cc(N3CCCCC3)c(F)cc2c1=O
Relative Growth (Saccharomyces cerevisiae [1]): -0.0482
Relative Growth (Saccharomyces cerevisiae [2]): -0.2997
Relative Growth (Saccharomyces cerevisiae [3]): -0.2149

CCN(CC)CCNc1ccnc2cc(Cl)ccc12
Relative Growth (Saccharomyces cerevisiae [1]): -0.0501
Relative Growth (Saccharomyces cerevisiae [2]): 0.0543
Relative Growth (Saccharomyces cerevisiae [3]): 0.0209

COc1ccc(-n2ccnc2SCC(=O)Nc2cc(C)ccc2C)c(OC)c1
Relative Growth (Saccharomyces cerevisiae [1]): -0.0469
Relative Growth (Saccharomyces cerevisiae [2]): -0.0529
Relative Growth (Saccharomyces cerevisiae [3]): 0.0762

COc1ccc(C2Sc3ccccc3N=C3C2=C(O)c2ccccc23)cc1 (centres undefined)
Relative Growth (Saccharomyces cerevisiae [1]): 0.0982
Relative Growth (Saccharomyces cerevisiae [2]): -0.0473
Relative Growth (Saccharomyces cerevisiae [3]): 0.0327

CCOC(=O)c1c(C)n(-c2ccccc2)c2ccc(OC(=O)c3cc(OC)c(OC)c(OC)c3)cc12
Relative Growth (Saccharomyces cerevisiae [1]): -0.0253
Relative Growth (Saccharomyces cerevisiae [2]): -0.0133
Relative Growth (Saccharomyces cerevisiae [3]): -0.2171

COc1ccc(C2N(C)c3ccccc3N2C)cc1
Relative Growth (Saccharomyces cerevisiae [1]): -0.0039
Relative Growth (Saccharomyces cerevisiae [2]): -0.0194
Relative Growth (Saccharomyces cerevisiae [3]): 0.0867

CCOc1ccccc1CNC(=O)C1c2ccccc2C(=O)N(CC(C)C)C1c1cccs1 (centres undefined)
Relative Growth (Saccharomyces cerevisiae [1]): -0.0674
Relative Growth (Saccharomyces cerevisiae [2]): 0.0472
Relative Growth (Saccharomyces cerevisiae [3]): -0.1153

CCOc1c(Cl)cc(CNC(C)C(O)c2ccccc2)cc1OC (centres undefined)
Relative Growth (Saccharomyces cerevisiae [1]): -0.0562
Relative Growth (Saccharomyces cerevisiae [2]): -0.05
Relative Growth (Saccharomyces cerevisiae [3]): 0.1383

COc1cccc(Nc2nc(N)c3ccccc3n2)c1.Cl
Relative Growth (Saccharomyces cerevisiae [1]): 0.0358
Relative Growth (Saccharomyces cerevisiae [2]): 0.0154
Relative Growth (Saccharomyces cerevisiae [3]): -0.036

CCc1c(C)c(=N)c2ccccc2n1C.I
Relative Growth (Saccharomyces cerevisiae [1]): -0.0391
Relative Growth (Saccharomyces cerevisiae [2]): 0.0986
Relative Growth (Saccharomyces cerevisiae [3]): 0.0462

CCOC(=O)C1CCN(C(=O)CN2C(=O)c3ccccc3C2c2c[nH]c3ccccc23)CC1 (centres undefined)
Relative Growth (Saccharomyces cerevisiae [1]): -1.0024
Relative Growth (Saccharomyces cerevisiae [2]): -0.2514
Relative Growth (Saccharomyces cerevisiae [3]): -0.5143

CCOC(=O)C1(Cc2ccccc2)CCN(Cc2cccc(OC)c2O)CC1
Relative Growth (Saccharomyces cerevisiae [1]): -0.0248
Relative Growth (Saccharomyces cerevisiae [2]): -0.0215
Relative Growth (Saccharomyces cerevisiae [3]): -0.0203

COc1ccc2c(c1)C1(Nc3ccccc3-c3nc4ccccc4n31)C(=O)N2 (centres undefined)
Relative Growth (Saccharomyces cerevisiae [1]): -0.0036
Relative Growth (Saccharomyces cerevisiae [2]): 0.0329
Relative Growth (Saccharomyces cerevisiae [3]): -0.0059

Cc1cc(Nc2ccc(C)c(Cl)c2)n2nc(C(F)(F)F)nc2n1
Relative Growth (Saccharomyces cerevisiae [1]): -0.0311
Relative Growth (Saccharomyces cerevisiae [2]): 0.1169
Relative Growth (Saccharomyces cerevisiae [3]): -0.6431

N=c1n(CCN2CCCCC2)c2ccccc2n1CC(=O)c1ccc(Cl)c(Cl)c1
Relative Growth (Saccharomyces cerevisiae [1]): -0.0413
Relative Growth (Saccharomyces cerevisiae [2]): 0.1082
Relative Growth (Saccharomyces cerevisiae [3]): 0.0494

COc1ccc(C=C2SC(=N)N(c3ccccc3OC)C2=O)cc1
Relative Growth (Saccharomyces cerevisiae [1]): -0.083
Relative Growth (Saccharomyces cerevisiae [2]): -0.0085
Relative Growth (Saccharomyces cerevisiae [3]): -0.0639
